Reference: patent US20110207726A1, “Inhibitors of Human Cathepsin L, Cathepsin B, and Cathepsin S” (The Trustees of the University of Pennsylvania, priority 2008, published 2011)
Like-named read-outs stand apart in the source and are kept apart here.

Columns and labels:
Plasmodium falciparum = test: Malaria assay, in vitro propagation; format: cell-based; conditions: read-out: IC50 against Plasmodium falciparum
Description: Eight two-fold serial dilutions of Compound No. 1 in RPMI 1640 media (Invitrogen 1 1 875) containing L-Glutamine, 50 mg/L hypoxanthine, 6 g/L HEPES, 0.5% Albumax 11 bovine serum (Invitrogen 11021), 0.225% sodium bicarbonate, and 1 pgIrnL gentamicin were performed in Corning 3704 microplates. […] In addition, 30 μL normal red blood cells and 30 μL infected red blood cells were added to two control columns containing 10 μL media. The plates were incubated at 37° C. in a 92% humidity chamber with 5% CO2, 5% O2, and 90% N2 for 48 hours to allow for two cycles of red blood cell rupture and invasion to take place. Forty μL BrightGlo™ (Promega E2610) were added to each well and centrifuged. After 5 minutes, luminescence was measured using the Envision microplate reader.

human cathepsin V = target: T1, human cathepsin V (Homo sapiens, UniProt O60911); test: Selectivity assay, cathepsin V; format: biochemical
T1 construct: purchased Calbiochem 219467
Description: (§1) Compound No. 1 was assayed for inhibition against papain and cathepsins B, G, K, S, and V. Papain from Carica papaya (Calbiochem 5125, 11 ng/mL), human cathepsin K (Calbiochem 342001, 35 ng/mL), human spleen cathepsin S (Calbiochem 219344, 40 ng/mL), and human cathepsin V (Calbiochem 219467, 39 ng/ml) were assayed using Z-Phe-Arg-AMC substrate at 20 μM, 20 μM, 15 μM, and 1 μM, respectively. Human liver cathepsin B (Calbiochem 219362, 65 ng/mL) was assayed using 15 μM Z-Arg-Arg-AMC substrate (Bachem I-1135). Human neutrophil cathepsin G (Calbiochem 219373, 4.2 μg/mL) was assayed using 15 μM Suc-Ala-Ala-Pro-Phe-AMC substrate (Sigma S9761). All reactions were performed in 20 mM sodium acetate buffer containing 5 mM cysteine and 1 mM EDTA, pH 5.5. Reaction progress was monitored using the Envision microplate reader. IC50 values were measured in triplicate.

zebrafish = test: Zebrafish live organism toxicity assay; conditions: at 100 μM
[1] = target: T2, Papain from Carica papaya (Carica papaya, UniProt P00784); test: Selectivity assay, papain; format: biochemical; conditions: for IC50: Papain, no preincubation
T2 construct: Papain from Carica papaya (Calbiochem 5125, 11 ng/mL); purchased Calbiochem 5125; host or cells: Carica papaya
Description: as §1

human cathepsin L = human cathepsin L (Homo sapiens, UniProt P07711); test: Reversibility, preincubation/dilution assay; format: biochemical; set-up: 8.7 ng/mL human liver cathepsin L (Calbiochem 219402); purchased Calbiochem 219402; host or cells: human liver
Description: This mixture was then diluted 100-fold in a Corning 3650 96-well plate with assay buffer containing 1 μM Z-Phe-Arg-AMC to a final volume of 200 μL. A rapidly reversible inhibitor should dissociate from the enzyme to restore approximately >90% of enzymatic activity. Fluorescence intensities of the 200 μL reaction wells were monitored continuously for AMC hydrolysis on the Envision plate reader.
The mechanism of inhibition, to determine whether the compound acted as a rapidly reversible, slowly reversible, or irreversible inhibitor, was evaluated using a preincubation/dilution assay (Copeland, 2005, Evaluation of Enzyme Inhibitors in Drug Discovery: A Guide for Medicinal Chemists and Pharmacologists, J. Wiley, Hoboken, N.J.). […] After 8820 s, the rate of product formation for the 4 hour preincubated reaction was 4.7 times greater than the initial rate of product formation, showing that the inhibitor was being released from the enzyme-inhibitor complex and enzymatic activity was indeed recovering.

[2] = test system: Leishmania major promastigotes; test: Leishmaniasis assay; format: cell-based; conditions: read-out: IC50 against Leishmania major promastigotes
Description: Five thousand Leishmania major promastigotes were plated per well in a 384-well microtiter plate in a 20 μL volume of promastigote growth medium. Promastigotes were treated with a concentration range from 0 μM to 50 μM of Compound No. 1 for 44 hrs. Five pL Cell-Titer-Blue™ were added per well and incubated for 4 hrs. Relative fluorescence units (A560/A590) were captured on a SpectraMax M5 microtiter plate reader. DMSO concentrations were held constant at 0.5%.

[3] = target: T3, Human neutrophil cathepsin G (Homo sapiens, UniProt P08311); test: Selectivity assay, cathepsin G; format: biochemical; conditions: for IC50: Cathepsin G, no preincubation
T3 construct: Human neutrophil cathepsin G (Calbiochem 219373, 4.2 μg/mL); purchased Calbiochem 219373; host or cells: human neutrophils
T3 sequence (P08311 21-243 limits assumed): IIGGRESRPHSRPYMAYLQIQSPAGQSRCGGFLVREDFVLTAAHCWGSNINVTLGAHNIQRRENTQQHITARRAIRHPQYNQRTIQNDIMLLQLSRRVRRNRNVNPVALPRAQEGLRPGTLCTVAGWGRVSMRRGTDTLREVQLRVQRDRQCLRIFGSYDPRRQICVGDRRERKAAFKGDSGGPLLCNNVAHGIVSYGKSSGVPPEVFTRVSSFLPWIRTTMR
Description: as §1

[4] = 30 min, read-out: IC50 @ 30 min
[5] = 60 min, read-out: IC50 @ 60 min
[6] = 90 min, read-out: IC50 @ 90 min

T1 sequence (O60911 114-334): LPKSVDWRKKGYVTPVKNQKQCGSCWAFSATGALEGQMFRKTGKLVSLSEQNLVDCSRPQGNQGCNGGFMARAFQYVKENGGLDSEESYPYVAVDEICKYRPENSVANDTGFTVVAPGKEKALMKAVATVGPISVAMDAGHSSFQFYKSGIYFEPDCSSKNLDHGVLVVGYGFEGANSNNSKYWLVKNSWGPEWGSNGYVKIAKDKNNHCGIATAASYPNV
Chain of human cathepsin L (P07711 114-288 limits assumed): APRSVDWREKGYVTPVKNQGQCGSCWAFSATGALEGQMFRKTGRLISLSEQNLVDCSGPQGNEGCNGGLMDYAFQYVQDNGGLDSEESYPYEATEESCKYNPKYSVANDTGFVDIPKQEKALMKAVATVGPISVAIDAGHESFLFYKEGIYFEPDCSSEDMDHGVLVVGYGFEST
Chain of human cathepsin L (P07711 292-333 limits assumed): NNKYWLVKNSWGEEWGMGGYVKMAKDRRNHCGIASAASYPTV
T2 sequence (P00784 134-345): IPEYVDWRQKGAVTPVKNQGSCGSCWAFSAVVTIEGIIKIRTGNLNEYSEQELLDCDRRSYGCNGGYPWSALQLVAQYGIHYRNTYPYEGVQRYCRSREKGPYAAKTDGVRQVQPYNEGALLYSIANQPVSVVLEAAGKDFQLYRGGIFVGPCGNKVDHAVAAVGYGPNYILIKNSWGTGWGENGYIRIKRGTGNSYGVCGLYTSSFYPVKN

CCc1ccccc1NC(=O)CSC(=O)NNC(=O)[C@H](Cc1c[nH]c2ccccc12)NC(=O)OC(C)(C)C [Compound No. 1]
IC50 (Plasmodium falciparum): 15400 ± 600 nM
IC50 (human cathepsin V): 1010 ± 142 nM
Selectivity Index @ 10 min (human cathepsin V; Cathepsin V vs cathepsin L, 10 min): 7
Selectivity Index @ 30 min (human cathepsin V; Cathepsin V vs cathepsin L, 30 min): 9
Selectivity Index @ 60 min (human cathepsin V; Cathepsin V vs cathepsin L, 60 min): 11
Selectivity Index @ 90 min (human cathepsin V; Cathepsin V vs cathepsin L, 90 min): 11
Selectivity Index (human cathepsin V; Cathepsin V vs cathepsin L, over 10-90 min): 7-11
IC50 (human cathepsin V; Cathepsin V, no preincubation, 30 min, read-out: IC50 @ 30 min): 688 ± 39 nM
IC50 (human cathepsin V; Cathepsin V, no preincubation, 60 min, read-out: IC50 @ 60 min): 618 ± 35 nM
IC50 (human cathepsin V; Cathepsin V, no preincubation, 90 min, read-out: IC50 @ 90 min): 576 ± 24 nM
toxicity to zebrafish (zebrafish): lack of toxicity
IC50 ([1]; IC50 @ 10 min, Carica papaya, 10 min): 6760 ± 367 nM
Selectivity Index @ 10 min ([1]; Papain vs cathepsin L, 10 min): 44
Selectivity Index @ 30 min ([1]; Papain vs cathepsin L, 30 min): 40
Selectivity Index @ 60 min ([1]; Papain vs cathepsin L, 60 min): 46
Selectivity Index @ 90 min ([1]; Papain vs cathepsin L, 90 min): 31
Selectivity Index ([1]; Papain vs cathepsin L, over 10-90 min): 31-46
IC50 [1, 4]: 2980 ± 282 nM
IC50 [1, 5]: 2600 ± 208 nM
IC50 [1, 6]: 1560 ± 314 nM
enzymatic activity returned after 100-fold dilution (human cathepsin L; 1 hour preincubation at 75 nM, 6000 s into the reaction): approximately 11%
rate of product formation relative to initial rate (human cathepsin L; 4 hour preincubated reaction, after 8820 s): 4.7 times
reaction inhibited immediately after addition of substrate (human cathepsin L; 4 hr preincubated enzyme-inhibitor): 99.8%
mechanism of inhibition (reversibility) (human cathepsin L; preincubation/dilution assay): very slowly reversible inhibitor
IC50 [2]: 12500 ± 600 nM
inhibitory activity against cathepsin G (in words) [3]: no inhibitory activity
IC50 ([3]; human neutrophil, 10 min): > 50000 nM
IC50 [3, 4]: > 50000 nM
IC50 [3, 5]: > 50000 nM
IC50 [3, 6]: > 50000 nM
